{"source": "patent US9606132B2", "about": "“Methods of monitoring adherence to lurasidone therapy” (Ameritox, Ltd., priority 2013, dated 2017)", "key": {"[1]": {"conditions": "in vivo", "protocol": "Urine samples of normally metabolizing human subjects who were known to be taking chronic doses of lurasidone were tested for the presence of lurasidone and eleven metabolites (excluding isomeric metabolites). Each patient sample was analyzed twice to ensure accuracy. Due to the high probability for false identification of isobars, MS/MS data was collected and selectively looked at to add confidence to the identification."}, "[2]": {"conditions": "cited from earlier work; for presence in serum: mice, rats, dogs (M8 also monkeys), 10 mg/kg oral administration of radiolabelled lurasidone"}, "[3]": {"conditions": "cited from earlier work; for presence in serum: 40 mg oral dosing of radiolabelled lurasidone"}}, "note": "Where two headings read alike, the source gives them in different places."}
{"compound": "O=C1C2C(C(=O)N1CC1CCCCC1CN1CCN(c3n[s+]([O-])c4ccccc34)CC1)[C@H]1CC[C@@H]2C1", "note": "(some centres unmarked) [M10]", "values": [{"measurement": "detectability in human urine (Example 1)", "setting": "[1]", "result": "not present at any significant amount"}]}
{"compound": "[H]/N=C(/c1ccccc1SC)N1CCN(CC2CCCCC2CN2C(=O)C3C(C2=O)[C@@H]2CC[C@H]3C2O)CC1", "note": "(some centres unmarked) [M22, S-Methyl Hydroxy Lurasidone]", "values": [{"measurement": "detectability in human urine (Example 1)", "setting": "[1]", "result": "present in detectable quantities in each test of each subject's urine sample"}, {"measurement": "presence in serum", "setting": "[2]", "result": "present in an unspecified low amount"}, {"measurement": "detection in other animal models", "setting": "[2]; rabbits or monkeys", "result": "not detected in any amount"}, {"measurement": "presence in serum", "setting": "[3]; humans", "result": "present in an unspecified low amount"}, {"measurement": "share of total drug-related exposure", "setting": "[3]; humans", "result": "less than 10%"}]}
{"compound": "O=C1C2C(C(=O)N1CC1CCCCC1CN1CCN(c3nsc4ccccc34)CC1)[C@@H]1CC[C@H]2C1O", "note": "(some centres unmarked) [M8]", "values": [{"measurement": "presence in serum", "setting": "[2]", "result": "present in an unspecified low amount"}, {"measurement": "presence in serum", "setting": "[3]; humans", "result": "present in an unspecified low amount"}]}
{"compound": "O=C(O)C1CCCCC1CN1C(=O)C2C(C1=O)[C@@H]1CC[C@H]2C1O", "note": "(some centres unmarked) [M5]", "values": [{"measurement": "detectability in human urine (Example 1)", "setting": "[1]; human", "result": "neither metabolite ID-20220 (M5) nor metabolite ID-20219 (M11) were found to be excreted through human urine in detectable amounts"}]}
{"compound": "O=C(O)C1CCCCC1CN1C(=O)C2C(C1=O)[C@H]1CC[C@@H]2C1", "note": "(some centres unmarked) [M11, 2-{(3,5-Dioxo-4-azatricyclo[5.2.1.0^2,6]dec-4-yl)methyl}cyclohexanecarboxylic acid]", "values": [{"measurement": "detectability in human urine (Example 1)", "setting": "[1]; human", "result": "neither metabolite ID-20220 (M5) nor metabolite ID-20219 (M11) were found to be excreted through human urine in detectable amounts"}, {"measurement": "Lurasidone Metabolite Distribution in Human Urine (qualitative identification)", "setting": "[1]", "result": "✓^*"}, {"measurement": "share of total radioactivity in plasma", "setting": "[3]; plasma, post oral dosing", "result": 24, "unit": "%"}]}
{"compound": "O=C1C2C(C(=O)N1CC1CCCCC1CN1CCN(c3nsc4ccccc34)CC1)[C@@H]1CC[C@H]2C1O", "note": "(some centres unmarked) [M9]", "values": [{"measurement": "identification in serum", "setting": "[2]; rats and dogs", "result": "identified in rats and dogs"}]}
{"compound": "CSc1ccccc1C(=N)N1CCN(CC2CCCCC2CN2C(=O)C3C(C2=O)[C@H]2CC[C@@H]3C2)CC1", "note": "(some centres unmarked) [M21, S-Methyl Lurasidone]", "values": [{"measurement": "detectability in human urine (Example 1)", "setting": "[1]", "result": "present in detectable quantities in each test of each subject's urine sample"}, {"measurement": "detection as circulating metabolite in serum", "setting": "[2]; any of the animal models, radiolabelled lurasidone", "result": "did not detect"}]}
{"compound": "O=C1C2C(C(=O)N1CC1CCCCC1CN1CCN(c3nsc4ccccc34)CC1)[C@@H]1CC[C@H]2C1O", "note": "(some centres unmarked) [M8/M9, Hydroxy-Lurasidone]", "values": [{"measurement": "detectability in human urine (Example 1)", "setting": "[1]", "result": "present in detectable quantities in each test of each subject's urine sample"}]}
{"compound": "O=C(O[C@@H]1O[C@H](C(=O)O)[C@@H](O)[C@H](O)[C@H]1O)C1CCCCC1CN1C(=O)C2C(C1=O)[C@H]1CC[C@@H]2C1", "note": "(some centres unmarked) [M11 Gluc]", "values": [{"measurement": "Lurasidone Metabolite Distribution in Human Urine (qualitative identification)", "setting": "[1]", "result": "✓*"}]}
